Measurements as given in patent US9765105B2, “Macrolide compound” (Pulike Biological Engineering, Inc., priority 2013, dated 2017).

Assays:
Assay in all cases: in vitro susceptibility, MIC by mini broth dilution
Assay type in all cases: cell-based
[1] = test system: Haemophilus parasuis
Protocol: (§1) in vitro tests of susceptibility of the compounds according to the present disclosure against bacterial strains commonly used in laboratories. In accordance with the Performance Standards for Antimicrobial Disk Susceptibility Tests: Approved Standard published by the US National Committee for Clinical Laboratory Standards, the antibacterial activities of compounds prepared according to examples 5 to 187 were tested. The MICs (minimum inhibitory concentration) of the medicaments prepared according to the examples on the following bacterial strains were measured through mini broth dilution technique. Staphylococcus aureus CVCC26003, Streptococcus equines CVCC556. Actinobacillus pleuropneumoniae CVCC262, Haemophilus parasuis, and Pasteurella multocida CVCC399, which were purchased from the Control Institute of Veterinary Bioproducts and Pharmaceuticals, China. 4.1.2 Culture Media for the Rest Four Bacterial Strains. Liquid culture medium: […] Solid culture medium: […] The strains were taken out of a refrigerator at −20° C. to be revived, and were spreaded by streaking on the solid culture medium with an inoculating loop. The inoculated culture medium was cultured at 35° C. in a constant temperature incubator for 20 h. […] were selected from a well-grown culture plate and streaked on the solid culture medium. The inoculated culture medium was cultured at 35° C. in the constant temperature incubator for 20 h. […] A 96-well plate was used, and 100 μl of DMSO was added into each of wells 2 to 11, and 200 μl of ready-prepared medicament solution was added into the 1st well, 100 μl of the medicament solution was extracted from the 1st well and added into the 2nd well. Double dilution was performed until the 11th well, thereby forming 11 gradients. In this case, compound of parent plate was prepared. 3 μl of double diluted medicament solution was extracted with a 12-channel pipettor and added into wells 1-11 of a new disposable 96-well culture plate. The 12th well thereof is a control well. For each medicament, there are two adjacent rows which are parallel. The transferred compound plate was reserved for later use. […] The dilution ratio was recorded, and the bacterial liquid for the tests was diluted according to the recorded dilution ratio. Subsequently, the bacterial suspension and the liquid culture medium were diluted in the proportion of 1:200. The diluted solution was reserved for later use.

[2] = test system: Actinobacillus pleuropneumoniae CVCC262; details: strain CVCC262
Protocol: as §1

[3] = test system: Streptococcus equines CVCC556; details: strain CVCC556
Protocol: as §1

[4] = test system: Pasteurella multocida CVCC399; details: strain CVCC399
Protocol: as §1

[5] = test system: Staphylococcus aureus CVCC26003; details: strain CVCC26003
Protocol: in vitro tests of susceptibility of the compounds according to the present disclosure against bacterial strains commonly used in laboratories. In accordance with the Performance Standards for Antimicrobial Disk Susceptibility Tests: Approved Standard published by the US National Committee for Clinical Laboratory Standards, the antibacterial activities of compounds prepared according to examples 5 to 187 were tested. The MICs (minimum inhibitory concentration) of the medicaments prepared according to the examples on the following bacterial strains were measured through mini broth dilution technique. Staphylococcus aureus CVCC26003, Streptococcus equines CVCC556. Actinobacillus pleuropneumoniae CVCC262, Haemophilus parasuis, and Pasteurella multocida CVCC399, which were purchased from the Control Institute of Veterinary Bioproducts and Pharmaceuticals, China. 4.1.1 Culture Medium for Staphylococcus aureus CVCC26003 Liquid culture medium: CAMHB. […] Solid culture medium: NINA prepared according to the specification of the final product. The strains were taken out of a refrigerator at −20° C. to be revived, and were spreaded by streaking on the solid culture medium with an inoculating loop. The inoculated culture medium was cultured at 35° C. in a constant temperature incubator for 20 h. […] were selected from a well-grown culture plate and streaked on the solid culture medium. The inoculated culture medium was cultured at 35° C. in the constant temperature incubator for 20 h. […] A 96-well plate was used, and 100 μl of DMSO was added into each of wells 2 to 11, and 200 μl of ready-prepared medicament solution was added into the 1st well, 100 μl of the medicament solution was extracted from the 1st well and added into the 2nd well. Double dilution was performed until the 11th well, thereby forming 11 gradients. In this case, compound of parent plate was prepared. 3 μl of double diluted medicament solution was extracted with a 12-channel pipettor and added into wells 1-11 of a new disposable 96-well culture plate. The 12th well thereof is a control well. For each medicament, there are two adjacent rows which are parallel. The transferred compound plate was reserved for later use. […] The dilution ratio was recorded, and the bacterial liquid for the tests was diluted according to the recorded dilution ratio. Subsequently, the bacterial suspension and the liquid culture medium were diluted in the proportion of 1:200. The diluted solution was reserved for later use.

| SMILES | MIC values, Haemophilus parasuis [1] | MIC values, Actinobacillus pleuropneumoniae CVCC262 [2] [ug/mi] | MIC values, Streptococcus equines CVCC556 [3] | MIC values, Pasteurella multocida CVCC399 [4] | MIC values, Staphylococcus aureus CVCC26003 [5] |
| --- | --- | --- | --- | --- | --- |
| CC[C@H]1OC(=O)[C@H](C)[C@@H](O[C@H]2C[C@@](C)(OC)[C@](O)(CNCCCN3CCOCC3)[C@H](C)O2)[C@H](C)[C@@H](O[C@@H]2O[C@H](C)C[C@H](N(C)C)[C@H]2O)[C@](C)(O)C[C@@H](C)NC[C@H](C)[C@@H](O)[C@]1(C)O [syzx-69, (2R,3S,4R,5S,8R,10R,11R,12S,13S,14R)-13-[(2,6-dideoxy-3-C-methyl-3-O-methyl-4-C-[(3-morpholinyl-propyl-amino)-methyl]-α-L-ribopyranosyl)oxy]-2-ethyl-3,4,10-trihydroxy-3,5,8,10,12,14-hexamethyl-11-[[3,4,6-trideoxy-3-(dimethylamino)-β-D-xylo-hexopyranosy]oxy]-1-oxa-7-azacyclopentadecan-15-one] | 1 ug/mi | 1 | 0.5 ug/mi | 0.5 ug/mi | 1 ug/mi |
| CCCN1C[C@H](C)[C@@H](O)[C@](C)(O)[C@@H](CC)OC(=O)[C@H](C)[C@@H](O[C@H]2C[C@@](C)(OC)[C@](O)(CNCC3CC3)[C@H](C)O2)[C@H](C)[C@@H](O[C@@H]2O[C@H](C)C[C@H](N(C)C)[C@H]2O)[C@](C)(O)C[C@H]1C [syzx-117] | 0.25 ug/mi | 0.25 | 0.25 ug/mi | 0.5 ug/mi | 0.25 ug/mi |
| CC[C@H]1OC(=O)[C@H](C)[C@@H](O[C@H]2C[C@@](C)(OC)[C@](O)(Cn3ccnc3)[C@H](C)O2)[C@H](C)[C@@H](O[C@@H]2O[C@H](C)C[C@H](N(C)C)[C@H]2O)[C@](C)(O)C[C@@H](C)NC[C@H](C)[C@@H](O)[C@]1(C)O [syzx-9, (2R,3S,4R,5S,8R,10R,11R,12S,13S,14R)-13-[(2,6-dideoxy-3-C-methyl-3-O-methyl-4-C-[(imidazolyl)methyl]-α-L-ribopyranosyl)oxy]-2-ethyl-3,4,10-trihydroxy-3,5,8,10,12,14-hexamethyl-11-[[3,4,6-trideoxy-3-(dimethylamino)-β-D-xylo-hexopyranosy]oxy]-1-oxa-7-azacyclopentadecan-15-one] | ≦0.25 ug/mi | 0.5 | ≦0.25 ug/mi | ≦0.25 ug/mi | ≦0.25 ug/mi |
| CCCN1C[C@H](C)[C@@H](O)[C@](C)(O)[C@@H](CC)OC(=O)[C@H](C)[C@@H](O[C@H]2C[C@@](C)(OC)[C@](O)(CNC3CC3)[C@H](C)O2)[C@H](C)[C@@H](O[C@@H]2O[C@H](C)C[C@H](N(C)C)[C@H]2O)[C@](C)(O)C[C@H]1C [syzx-217] | 0.25 ug/mi | 0.25 | 0.25 ug/mi | 0.5 ug/mi | 0.25 ug/mi |
| CCCN1C[C@H](C)[C@@H](O)[C@](C)(O)[C@@H](CC)OC(=O)[C@H](C)[C@@H](O[C@H]2C[C@@](C)(OC)[C@](O)(CNc3nc(Cl)cc(Cl)n3)[C@H](C)O2)[C@H](C)[C@@H](O[C@@H]2O[C@H](C)C[C@H](N(C)C)[C@H]2O)[C@](C)(O)C[C@H]1C [syzx-202] | 4 ug/mi | 2 | 0.25 ug/mi | 2 ug/mi | 2 ug/mi |

The remaining lines, values ahead:

| MIC values, Haemophilus parasuis [1] | MIC values, Actinobacillus pleuropneumoniae CVCC262 [2] [ug/mi] | MIC values, Streptococcus equines CVCC556 [3] | MIC values, Pasteurella multocida CVCC399 [4] | MIC values, Staphylococcus aureus CVCC26003 [5] | SMILES |
| --- | --- | --- | --- | --- | --- |
| 0.25 ug/mi | 0.25 | 0.25 ug/mi | 1 ug/mi | 0.25 ug/mi | CCCN1C[C@H](C)[C@@H](O)[C@](C)(O)[C@@H](CC)OC(=O)[C@H](C)[C@@H](O[C@H]2C[C@@](C)(OC)[C@](O)(CNCc3ccc([N+](=O)[O-])cc3)[C@H](C)O2)[C@H](C)[C@@H](O[C@@H]2O[C@H](C)C[C@H](N(C)C)[C@H]2O)[C@](C)(O)C[C@H]1C [syzx-119] |
| 0.25 ug/mi | 0.25 | 0.25 ug/mi | 0.5 ug/mi | 0.25 ug/mi | CCCN1C[C@H](C)[C@@H](O)[C@](C)(O)[C@@H](CC)OC(=O)[C@H](C)[C@@H](O[C@H]2C[C@@](C)(OC)[C@](O)(CNC(C)CCc3ccccc3)[C@H](C)O2)[C@H](C)[C@@H](O[C@@H]2O[C@H](C)C[C@H](N(C)C)[C@H]2O)[C@](C)(O)C[C@H]1C (stereo partly shown) [syzx-134] |
| 1 ug/mi | 1 | 0.25 ug/mi | 2 ug/mi | 2 ug/mi | CCCN1C[C@H](C)[C@@H](O)[C@](C)(O)[C@@H](CC)OC(=O)[C@H](C)[C@@H](O[C@H]2C[C@@](C)(OC)[C@](O)(CNc3ccc([N+](=O)[O-])cc3[N+](=O)[O-])[C@H](C)O2)[C@H](C)[C@@H](O[C@@H]2O[C@H](C)C[C@H](N(C)C)[C@H]2O)[C@](C)(O)C[C@H]1C [syzx-228] |
| 0.5 ug/mi | 0.5 | 0.25 ug/mi | 2 ug/mi | 1 ug/mi | CCC1OC(=O)C(C)C(OC2CC(C)(OC)C(O)(CNc3cc(C)ccc3F)C(C)O2)C(C)C(OC2OC(C)CC(N(C)C)C2O)C(C)(O)CC(C)NCC(C)C(O)C1(C)O [syzx-96, (2R,3S,4R,5S,8R,10R,11R,12S,13S,14R)-13-[(2,6-dideoxy-3-C-methyl-3-O-methyl-4-C-[(2-fluoro-5-methylphenyl-amino)-methyl]-α-L-ribopyranosyl)oxy]-2-ethyl-3,4,10-trihydroxy-3,5,8,10,12,14-hexamethyl-11-[[3,4,6-trideoxy-3-(dimethylamino)-β-D-xylo-hexopyranosy]oxy]-1-oxa-7-azacyclopentadecan-15-one] |
| 0.5 ug/mi | 16 | – | 2 ug/mi | 0.5 ug/mi | CC[C@H]1OC(=O)[C@H](C)[C@@H](O[C@H]2C[C@@](C)(OC)[C@](O)(CNCc3ccc(OC)cc3)[C@H](C)O2)[C@H](C)[C@@H](O[C@@H]2O[C@H](C)C[C@H](N(C)C)[C@H]2O)[C@](C)(O)C[C@@H](C)NC[C@H](C)[C@@H](O)[C@]1(C)O [syzx-18, (2R,3S,4R,5S,8R,10R,11R,12S,13S,14R)-13-[(2,6-dideoxy-3-C-methyl-3-O-methyl-4-C-[(4-methoxybenzylamino)methyl]-α-L-ribopyranosyl)oxy]-2-ethyl-3,4,10-trihydroxy-3,5,8,10,12,14-hexamethyl-11-[[3,4,6-trideoxy-3-(dimethylamino)-β-D-xylo-hexopyranosy]oxy]-1-oxa-7-azacyclopentadecan-15-one] |
